Experimental data taken from patent US20170158745A1, “IDR PEPTIDE COMPOSITIONS AND USE THEREOF FOR TREATMENT OF TH2-DYSREGULATED INFLAMMATORY CONDITIONS” (University of Manitoba, priority 2013, published 2017).
Residues, ends and D or L forms follow the SMILES beside them.

Tests used:
Assay type in all cases: in vivo, mouse (Balb/c)
Conditions in all cases: BALF, serum or lung tissue extract
[1] = system: IL-5; assay: Induction of IL-5 by the peptide itself
[2] = system: IL-1β; assay: Induction of IL-1β by the peptide itself
[3] = system: TNFα; assay: Induction of TNFα by the peptide itself
[4] = system: IL-4; assay: Induction of IL-4 by the peptide itself

CC[C@H](C)[C@H](NC(=O)[C@H](CCCNC(=N)N)NC(=O)[C@H](Cc1c[nH]c2ccccc12)NC(=O)[C@@H](NC(=O)[C@@H](NC(=O)[C@H](CC(C)C)NC(=O)[C@H](Cc1c[nH]c2ccccc12)NC(=O)[C@H](CCCNC(=N)N)NC(=O)[C@H](CCC(N)=O)NC(=O)[C@@H](N)C(C)C)[C@@H](C)CC)C(C)C)C(=O)N[C@@H](CCCNC(=N)N)C(=O)N[C@@H](CCCCN)C(N)=O [IDR 1002, VQRWLIVWRIRK-NH2] (H-VQRWLIVWRIRK-NH2)
did not induce: induction of IL-5 [1] | induction of IL-1β [2] | induction of TNFα [3] | induction of IL-4 [4]
